Test results reported in patent publication US20260258009A1, “3-[(BENZO[D][1,3]DIOXOLANE-4-YL)OXY]PROPYLAMINE HYDROCHLORIDE, OPTICAL ISOMER AND CRYSTAL THEREOF, AND PREPARATION METHOD THEREFOR” (priority 2022, published 2026).
Counter-ions that a name gives are not always drawn. Like-named read-outs stand apart in the source and are kept apart here.

How the values were obtained:
[1] = Solubility experiment (HPLC, external standard method); type: physicochemical; conditions: thermodynamic from solid, Water, 20° C., overnight oscillation, read-out: Solubility
Procedure: The concentrated solution was placed in a 20° C. water bath thermostatic oscillator for overnight oscillation (supersaturation) and filtered. The filtrate was taken, 1 mL of which was precisely measured and placed in a 100 mL volumetric flask. A diluent (water) was added, the mixture was diluted to volume and mixed well, 1 mL of which was precisely measured and placed in a 10 mL volumetric flask. A diluent was added, the mixture was diluted to volume and mixed well as a test sample solution.
Control substance solution: A proper amount of 5 samples were respectively taken, precisely measured, dissolved in a proper amount of a diluent by ultrasonication, and diluted to give a solution containing about 0.1 mg of the sample per 1 mL. Two duplicate samples were prepared for each batch.
• (1) Preparation of buffer: About 2.6428 g ammonium sulfate was weighed and dissolved in 1000 mL of water. 2 mL of triethylamine was added, and the pH value was adjusted to 4.0 with dilute sulfuric acid. • (2) Preparation of mobile phase: Methanol-0.02 mol/L ammonium sulfate solution (2 mL triethylamine was added per 1000 mL, and the pH value was adjusted to 4.0 with dilute sulfuric acid) (45:55). 1000 mL was prepared, mixed well, filtered, and used after ultrasonic treatment.
Detection wavelength: 230 nm; flow rate: 1.0 mL/min; column temperature: 35° C.; sample injection volume: 20 μL; chromatographic column: Agilent Eclipse XDB-C18 chromatographic column (4.6×150 mm, 5 μm); mobile phase: methanol-0.02 mol/L ammonium sulfate solution (2 mL triethylamine was added per 1000 mL, and the pH value was adjusted to 4.0 with dilute sulfuric acid) (45:55).
20 μL of each solution was precisely measured, and injected separately into a liquid chromatograph. The chromatograms were recorded, and the solubility of the compounds was determined according to an external standard method.

[2] = Experiments of influencing factors (crystal form stability, XRPD); type: physicochemical; conditions: hydrochloride; for Crystal form after High temperature of 60° C. / Crystal form after Illumination of 5000 1x / Crystal form after High humidity of 92.5%: XRPD; for Crystal form stability (experimental conclusion): high temperature, high humidity, illumination, condition stated in the value; for Crystal form after Illumination of 5000 1x: photostability tester 5000 lx; for Crystal form after High humidity of 92.5%: relative humidity 92.5%
Procedure: High temperature experiment: About 1 g of the A, B, and C crystal forms were respectively weighed, placed in a clean watch glass, and placed at 60° C. for 10 days. The samples were taken on day 0, day 5, day 10, and day 30 for XRPD analysis.
High humidity experiment: About 1 g of the A, B, and C crystal form samples were respectively weighed, placed in a clean watch glass, and placed at a relative humidity of 92.5% for 10 days. The samples were taken on day 0, day 5, day 10, and day 30 for XRPD analysis.
Illumination experiment: About 1 g of the A, B, and C crystal form samples were respectively weighed, placed in a clean watch glass, laid flat, and placed in a photostability tester (the illumination was 5000 lx) for 10 days. The samples were taken on day 0, day 5, day 10, and day 30 for XRPD analysis.

[3] = test system: ICR mice; assay: Mouse forced swimming test; type: in vivo; conditions: for Immobility time: mice, 1 h after administration, mean±SD, n=12
Procedure: SPF grade ICR mice were taken. The animals were grouped by weight, 12 animals per group, and the animals were allowed to acclimate for at least 3 days before behavioural test.
The behavioural test was started 1 h after intragastric administration. The mice were placed in a transparent glass cylinder with water (water depth: 15 cm, water temperature: 23-25° C.) and video recorded for 6 min (the background was an LED light panel). At the end of the time, the mice were removed from the water and the next batch of mice was subjected to the behavioural test. Water was changed after every 3 batches of tests. After the test, the video of the behavioural test was derived and the cumulative immobility time of the mice 4 min after the 6 min forced swimming period was analyzed using the Forced Swim Scant 2.0 software.
The test results are expressed as mean±SD. Comparisons between each group and the vehicle group were conducted using the t-test. The differences were considered statistically significant when. P<0.05.

[4] = Pharmacokinetic assay in beagle dogs; conditions: both, dog, in vivo, mean; for half-life: t1/2, beagle dogs
Procedure: Each group had six beagle dogs, half male and half female.
Preparation of solutions: • 1) Intravenous injection administration: 0.9% Normal saline was used as a vehicle. • 2) Oral administration: According to the dose of 10 mg/kg (based on base), a corresponding mass of the drug was weighed according to the actual weight of the animal, and then filled into a capsule to be administered to the animal.

[5] = po, 1 mg/kg, beagle dogs, oral (capsule)

| SMILES | Crystal form after High temperature of 60° C. ([2]; 5 days) | Crystal form after High temperature of 60° C. ([2]; 10 days) | Crystal form after High temperature of 60° C. ([2]; 30 days) | Crystal form stability (experimental conclusion) [2] | Crystal form after Illumination of 5000 1x ([2]; 5 days) | Crystal form after Illumination of 5000 1x ([2]; 10 days) | Crystal form after Illumination of 5000 1x ([2]; 30 days) | Crystal form after High humidity of 92.5% ([2]; 5 days) | Crystal form after High humidity of 92.5% ([2]; 10 days) | Crystal form after High humidity of 92.5% ([2]; 30 days) | other results |
| --- | --- | --- | --- | --- | --- | --- | --- | --- | --- | --- | --- |
| CNCC[C@@H](Oc1cccc2c1OCO2)c1ccccc1.O=C(O)C(=O)O [(R)—N-methyl-3-phenyl-3-[(benzo[d][1,3]dioxolan-4-yl)oxy]propylamine oxalate, reference compound] |  |  |  |  |  |  |  |  |  |  | solubility [1]: 5100 µg/mL |
| CNCC[C@@H](Oc1cccc2c1OCO2)c1ccccc1.Cl [B crystal form, (R)—N-methyl-3-phenyl-3-[(benzo[d][1,3]dioxolan-4-yl)oxy]propylamine hydrochloride] | Crystal form A + B | Crystal form A + B | Crystal form A + B | converted into a mixed crystal of the crystal forms A and B under the high temperature and high humidity environment | Crystal form B | Crystal form B | Crystal form B | Crystal form A + B | Crystal form A + B | Crystal form A + B |  |
| CNCC[C@@H](Oc1cccc2c1OCO2)c1ccccc1.Cl [C crystal form, (R)—N-methyl-3-phenyl-3-[(benzo[d][1,3]dioxolan-4-yl)oxy]propylamine hydrochloride] | Crystal form C | Crystal form C | Crystal form C | converted into the A crystal form under the high humidity environment | Crystal form C | Crystal form C | Crystal form C | Crystal form A | Crystal form A | Crystal form A |  |
| CNCC[C@H](Oc1cccc2ccccc12)c1cccs1 [Duloxetine hydrochloride, reference compound] |  |  |  |  |  |  |  |  |  |  | ED50 ([3]; Mus musculus, po, read-out: ED50 (median effective dose, FST-ED50)): 6.93 mg/kg; Immobility time ([3]; intragastric, 1.25 mg/kg): 135.1 ± 49.2 s; Immobility time ([3]; intragastric, 2.5 mg/kg): 154.9 ± 76.0 s; Immobility time ([3]; intragastric, 5 mg/kg): 104.9 ± 51.5 s; Immobility time ([3]; intragastric, 20 mg/kg): 29.9 ± 45.4 s; Immobility time ([3]; intragastric, 40 mg/kg): 10.6 ± 17.3 s; minimum effective dose (MED) ([3]; mouse forced swimming, intragastric): 5 mg/kg |
| CNCCC(Oc1cccc2c1OCO2)c1ccccc1.O=C(O)C(=O)O (stereo not shown) [N-methyl-3-phenyl-3-[(benzo[d][1,3]dioxolan-4-yl)oxy]propylamine oxalate] |  |  |  |  |  |  |  |  |  |  | AUC(0-t) ([4]; iv, 0.3 mg/kg, beagle dogs): 109 ng·h/mL; AUC(0-inf) ([4]; iv, 0.3 mg/kg, beagle dogs): 110 ng·h/mL; Cmax ([4]; iv, 0.3 mg/kg, beagle dogs): 71.6 ng/mL; Tmax ([4]; iv, 0.3 mg/kg, beagle dogs): 0.08 h; half-life ([4]; iv, 0.3 mg/kg): 1.93 h; AUC(0-t) [4, 5]: 78.7 ng·h/mL; AUC(0-inf) [4, 5]: 79.9 ng·h/mL; bioavailability ([4]; po, 1 mg/kg, Bioavailability, beagle dogs, oral 1 mg/kg vs intravenous 0.3 mg/kg): 21.8%; Cmax [4, 5]: 23.7 ng/mL; Tmax [4, 5]: 1.43 h; half-life ([4]; po, 1 mg/kg, oral (capsule)): 1.98 h; solubility ([1]; water, 20 °C, water): 6900 µg/mL |
